Assay results from patent publication US20170088584A1, “USE OF […] DRUGS FOR OS[…] AND BONE REGENERATION” (UNIVERSIDAD NACIONAL AUTONOMA DE MEXICO, priority 2015, published 2017).
Entries after “also recorded” stand apart in the source; their conditions may differ.

What was measured:
[1] = tested on: critical-size calvarial defect in Wistar rats; test: regeneration of critical-size calvarial defect with peptide in gelatin sponge scaffold; assay type: in vivo; conditions: 20-50 μg peptide per gelatin sponge (Gelfoam) disk, 9 mm defect, after 16 weeks
Text: These peptides have been artificially synthesized and then combined with a three-dimensional scaffold made of gelatin (gelatin sponge), thus it was used for regeneration of critical size bone defects in an animal model: two groups of 14 male Wistar rats of approximately 250±20 grams of weight were used. Anesthesia of the rats was achieved through intraperitoneal injection of ketamine. The critical size defect was done by performing a 3 cm incision in the calvarial bone and then lifting a mucoperiostial flap. Subsequently, with a 9 mm trephine, a defect was created in the rat's calvarial bone. In the experimental group the formulation was introduced. It consisted of a 9 mm-diameter, porous, three-dimensional, gelatin-based (Gelfoam) disk containing the peptide at a concentration of 20-50 μg/disk. Previously, the dimensional scaffold (gelatin sponge) was incubated with a concentration of the corresponding peptide at 20-50 μg/disk of gelatin sponge and was vacuum dried. Control animals were treated only with a disk of gelatin sponge and a vehicle for re-suspension of the peptide (phosphate buffer pH 7.4) and another group remained without treatment. Blood supply is ensured at the surgical site. The operation site was sealed with Satin S-100, which consists primarily in gelatin. At the end of 16 weeks, the tissues were fixed with 10% formaldehyde and embedded in paraffin. […]

[2] = tested on: ovariectomized Wistar rats with osteoporosis; test: resistance to compression of the 5th lumbar vertebra, ovariectomized osteoporotic rat model; assay type: in vivo, Wistar rats (Rattus norvegicus); conditions: 20-50 μg/kg i.p. daily for 90 days, started 5 months after ovariectomy; end of treatment
Experimental: FIG. 12 corresponds to a graph showing the resistance to compression of the vertebral body of the 5th lumbar vertebra obtained from Wistar rats at the end of the 90-day experimental period, 5 months after ovariectomy. Resistance Tests were performed using an Inströn Universal Testing Machine (mod. 5567) in the body of the 5th lumbar vertebra compressed at a speed of 1 mm/min up to achieve sample fracture. The exerted force is expressed in N/mm^2. […].
(§1) We used 48 female rats of the Wistar strain, 3 months of age, with a weight of 250±20 gr. The animals were acclimated for 14 days at an ambient temperature of 22° C. with a photoperiod of 12 hours and relative humidity of 50%; food and water were ad libitum. The rats were sedated with acepromazine maleate (Relax 0.5 g/100 ml) at a dose of 20 μg/Kg of weight and as general anesthetic, tiletamine and zolazepam were used at a concentration of 25 mg/kg of weight.
Anesthetic maintenance was performed with constant flow of isoflurane. Once the rats were anesthetized we proceeded to perform the bilateral ovariectomy procedure for what the anesthetized rat was placed in lateral decubitus and shaved from the last rib forming a rectangle of approximately 4×3 cm. […] The 5th dorsal vertebra of the rats was analyzed by means of computed micro tomography (μCT) prior to euthanasia with CO2 on day 90 of treatment. […]

[3] = tested on: ovariectomized Wistar rats with osteoporosis; test: bone microarchitecture by histology (Masson's trichrome) and μCT, ovariectomized osteoporotic rat model; assay type: in vivo, Wistar rats (Rattus norvegicus); conditions: 20-50 μg/kg i.p. daily 90 days; for μCT three-dimensional reconstruction of 5th lumbar vertebra / histology of femur epiphysis microarchitecture: 5 months after ovariectomy; for histology of femur epiphysis microarchitecture: Masson's trichrome; for histology of the body of the 5th lumbar vertebra: transverse and sagittal planes
Experimental: In FIGS. 5 and 6 histological sections of 5 μm thick and stained with Masson's Trichromic stain may be observed in which the microarchitecture of the epiphysis of the femur of the Wistar rats is analyzed in detail. Letter (A) of both figures corresponds to the group with no treatment which is the healthy control group. In the histological section stained with Masson's Trichromic stain, normal microarchitecture of the femoral epiphysis is observed with the cancellous bone and medullar spaces filled with bone marrow and bone occupying inter-medullar spaces. The epiphyseal plate and articular cartilage are also observed. […] Treatment with the vehicle lasted 90 days. […] These spaces have variable sizes. Articular cartilage and epiphyseal plate are also noted. […] Microphotography showing the microarchitecture of the femur epiphysis of Wistar rats. […] Articular cartilage and epiphyseal plate are also observed.
In FIGS. 7 and 8, microphotographs of histological sections of 5 μm thick of the 5th lumbar vertebra in the transverse and sagittal plane stained with Masson's Trichromic stain. Panel (A) of FIGS. 7 and 8 corresponds to the body of the 5th lumbar vertebra in the transverse (a) and sagittal (a′) planes of normal Wistar rats where cortical bone, bone trabeculate and spaces filled with bone marrow may be observed. Panel (B) of FIGS. 7 and 8 corresponds to the body of the 5th lumbar vertebra in the transverse (b) and sagittal (b′) planes of osteoporotic Wistar rats treated with physiological saline solution where cortical bone and bone trabeculate are observed with lesser width than the one of healthy Wistar rats. Medullar spaces are also observed and they are filled with fatty tissue with larger areas than those found in healthy controls.
as §1
Anesthetic maintenance was performed with constant flow of isoflurane. Once the rats were anesthetized we proceeded to perform the bilateral ovariectomy procedure for what the anesthetized rat was placed in lateral decubitus and shaved from the last rib forming a rectangle of approximately 4×3 cm. This area is disinfected with an electrolyzed super oxidant solution with neutral pH (Veteribac). Then a linear incision of approximately 2 cm up was performed with a scalpel to reach the muscle and expose the abdominal cavity. With extreme care, the cervix was located and identified. The cervix was ligated exactly on its middle portion with 6/0 polyglycolic acid sutures and subsequently the ovaries were eliminated with a scalpel. It was sutured by planes (abdominal muscles and skin) with 4/0 polyglycolic acid sutures and finally, the surgical area was cleaned with hydrogen peroxide. The rats were maintained in vivarium conditions during 5 months with 12 hours of light and 12 hours of darkness, at an average temperature of 22° C. with food and water ad libitum. […] Once this period concluded, 32 ovariectomized rats were divided into 4 groups of 8 rats each. […] The control group of osteoporotic rats […] was treated with physiological saline solution (pH 7.4) for 90 days. The healthy control group (16) rats received no treatment at all. Blood was obtained from all groups at the beginning and end of treatment (90 days). The 5th dorsal vertebra of the rats was analyzed by means of computed micro tomography (μCT) prior to euthanasia with CO2 on day 90 of treatment. The femur and 5th dorsal vertebrae were obtained, fixed in 10% paraformaldehyde and embedded in paraffin. […]

[4] = tested on: Human Osteoblasts derived from alveolar bone; test: MTT cytotoxicity and cell proliferation assay; assay type: cell-based; conditions: 5 μg/ml, 4 days, medium with 0.5% fetal bovine serum
Experimental: The cytotoxic effect and the effect on cell proliferation was assessed by means of the MTT colorimetric assay (tetrazolium) [3-(4,5-dimethylthazol-2-yl)-2,5-diphenyl tetrazoliumbromide], during 1, 2, 3 and 4 days. Human Osteoblasts derived from alveolar bone were planted at a density of 1×10^4 in plates of 96 wells. The cells were treated with the peptides (independently) for 4 days with concentrations of 1, 3 and 5 μg/ml of each of the peptides. The medium was replaced daily, and the peptides administered in the same way. The controls used were medium with fetal bovine serum at 10% (positive control) and medium with fetal bovine serum at 0.5% (negative control.) the peptides were administered at the various concentrations contained in the medium at 0.5%. At the end of each day of treatment, 10 μL of MTT (3-(4,5-dimethylthiazol-2-yl)-2,5-diphenyltetrazolium bromide) solution (5 mg/mL) was added to the wells and incubated for 3 hours. At the end the supernatant was removed and extraction was carried out by means of DMSO for 1 hour at 37° C. The optical density of the supernatant was read in a reader for ELISA at 570 nm. The optical density reflects the number of living cells present in the culture. […] The peptide […] (SEQ ID NO: 2) at a 5 μg/ml concentration promotes cell proliferation to a 92% with respect to the positive control (10% fetal bovine serum) (B).

[5] = tested on: ovariectomized Wistar rats with osteoporosis; test: histology of liver, kidney, heart, lung, brain, spleen, muscle after 90 days of peptide administration; assay type: in vivo, Wistar rats (Rattus norvegicus); conditions: 20-50 μg/kg i.p. for 90 days
Experimental: The control tissues in Panel (A) correspond to: normal tissues: L=liver, K=kidney, H=heart, Lu=lung, B=brain, M=muscle, S=spleen. Panel B) tissues of Wistar rats with osteoporosis treated with the pharmaceutical formulations object of this invention; L=liver, K=kidney, H=heart, Lu=lung, B=brain, S=Spleen M=muscle. […] This means that the synthetic peptides are harmless drugs for osteoporosis treatment, producing no adverse or secondary reactions at cellular or tissue level.

[6] = biodistribution of peptide marked with pertechnetate (99mTc); assay type: in vivo, Wistar rats
Experimental: To determine the bio distribution of the peptides object of this invention, they were marked using technetium in the form of pertechnetate (TcO4−). In order to perform the marking, a working solution which contained: 40 ug of the peptides object of this invention, 50 ul of tartrate (2 mg/ml of acetate buffer pH5), 10 μl of SnCl2 (2 mg/ml 0.1 N HCl), 50 μl of gentisic acid (1 mg/ml) and 50 μl of 99m Tc—Na TCO4− (5 mCi) was prepared. Male Wistar rats of 250 g of weight which were at a temperature of 22° C. with a photoperiod of 12 hours and relative humidity at 50% were used. Food and water was ad libitum. To assess bio distribution, groups of three rats were formed and injected intraperitoneally with 40 μl of the marked peptide. They were sacrificed by an overdose of anesthetic at 30’, 1, 3, 6 and 24 hours. Blood samples from the heart, lung, liver, spleen, kidneys, stomach, small intestine, large intestine, muscle, bone, thyroid, brain and tooth were collected. These organs were weighed on an analytical balance and subsequently placed in a NaI(TI) solid scintillation counter to detect the activity of each one of the organs. With this procedure, the percentage of the injected dose per gram of tissue (% ID/g) was obtained.

| Substance | filling of the critical-size calvarial defect with bone [1] | resistance to compression of 5th lumbar vertebra, difference compared to healthy control [2] | μCT three-dimensional reconstruction of 5th lumbar vertebra [3] | histology of femur epiphysis microarchitecture [3] | histology of the body of the 5th lumbar vertebra [3] | cell proliferation with regard to the positive control (10% fetal bovine serum) [4] | histological alteration of liver, kidney, heart, lung, brain, spleen, muscle [5] | percentage of injected dose per gram of tissue (% ID/g) ([6]; bone, 30′) | percentage of injected dose per gram of tissue (% ID/g) ([6]; bone, 1 hour) | percentage of injected dose per gram of tissue (% ID/g) ([6]; bone, 24 hours) | percentage of injected dose per gram of tissue (% ID/g) ([6]; kidney, 1 hour) | percentage of injected dose per gram of tissue (% ID/g) ([6]; kidney, 3 hours) | percentage of injected dose per gram of tissue (% ID/g) ([6]; kidney, 6 hours) | percentage of injected dose per gram of tissue (% ID/g) ([6]; kidney, 24 hours) | percentage of injected dose per gram of tissue (% ID/g) ([6]; large intestine, 30′ after i.p. injection) | percentage of injected dose per gram of tissue (% ID/g) ([6]; large intestine, 24 hours) | percentage of injected dose per gram of tissue (% ID/g) ([6]; liver, 1 hour) | percentage of injected dose per gram of tissue (% ID/g) ([6]; liver, 24 hours) |
| --- | --- | --- | --- | --- | --- | --- | --- | --- | --- | --- | --- | --- | --- | --- | --- | --- | --- | --- |
| AVIFM | 100% | 2% | cancellous bone is present in almost the entire vertebral body | bone trabeculae forms a network structure similar to the microarchitecture of healthy control group; also recorded: full medullar spaces without evidence of osteoporotic spaces and with normal bone microarchitecture | cortical bone is observed similar to that of healthy Wistar rats | 82% |  |  |  |  |  |  |  |  |  |  |  |  |
| MGTSSTDSQQAQHRRCSTSN | 100% | 19% | cancellous bone is present in almost the entire vertebral body | bone trabeculae forms a network structure similar to the microarchitecture of healthy control group; also recorded: full medullar spaces without evidence of osteoporotic spaces and with normal bone microarchitecture | cortical bone is observed similar to that of healthy Wistar rats | 92% | no histological feature that indicates that peptide administration in physiological saline solution causes microscopic alteration in these tissues | 1.3% | 1.4% | 0.4% | 1.6% | 2.6% | 1.3% | 0.9% | 3.6% | 0.006% | 3.4% | 0.2% |
